Experimental findings from ChEMBL document CHEMBL4715932, “Positional Isomers of Biphenyl Antimicrobial Peptidomimetic Amphiphiles” (ACS Med Chem Lett, 2021) are described below.

One series has as its system Klebsiella pneumoniae. Put plainly: Antimicrobial activity against multidrug-resistant Klebsiella pneumoniae ATCC 700603 assessed as growth inhibition incubated for 18 hrs. The format is functional.
In series [1] the test system is Clostridioides difficile. Put plainly: Antibacterial activity against Clostridioides difficile ATCC 700057 assessed as inhibition of growth visually preincubated for 2 to 4 hrs measured after 48 hrs by CLSI method. The series is classed as functional. Particulars: time hrs <=52.
The subject of series [2] is Staphylococcus aureus. In words: Antibacterial activity against Staphylococcus aureus ATCC 29213 assessed as inhibition of growth visually by CLSI method. The series is classed as functional.
Series [3] in a line: Hemolytic activity in human RBC assessed as maximal hemolysis at <= 32 ug/ml incubated for 1 hr by CO-ADD method. Particulars: red blood cells (erythrocytes), dose <=32 µg/ml, read-out: Activity. The series is classed as cell-based, Erythrocyte.
Series [4] has as its system Staphylococcus aureus. Put plainly: Antibacterial activity against methicillin-resistant Staphylococcus aureus NCTC 10442 assessed as inhibition of growth visually by CLSI method. The format is functional.
The nature of series [5]: Cytotoxicity against human HEK-293 cells incubated for 23 hrs by CO-ADD method. The series is classed as cell-based, HEK293.
Series [6] can be described thus: Cytotoxicity against human HEK-293 cells assessed as maximal inhibition at <= 32 ug/ml incubated for 23 hrs by CO-ADD method. The series is classed as cell-based, HEK293. Particulars: dose <=32 µg/ml, read-out: Imax.
For series [7], the system named is Enterococcus faecalis. In words: Antibacterial activity against vancomycin-resistant Enterococcus faecalis ATCC 51299 assessed as inhibition of growth visually by CLSI method. The series is classed as functional.
Series [8] is described as follows: Hemolytic activity in sheep RBC assessed as hemolysis at 5 microg/ml incubated for 2 hrs by CO-ADD method. The series is classed as ADME, cell-based, Ovis aries, Erythrocyte. Particulars: red blood cells (erythrocytes), at 5 µg/mL, read-out: Activity.
Another series relates to Candida albicans. Put plainly: Antifungal activity against Candida albicans ATCC 90028 assessed as growth inhibition incubated for 36 hrs. The series is classed as functional. Particulars: 28A ATCC 90028.
The next series concerns Streptococcus pneumoniae. Put plainly: Antibacterial activity against Streptococcus pneumoniae ATCC 49619 assessed as inhibition of growth visually by CLSI method. The series is classed as functional.
Series [9] can be described thus: Hemolytic activity in human RBC assessed as hemolysis incubated for 1 hr by CO-ADD method. The format is ADME, cell-based, Erythrocyte. The settings on record: red blood cells (erythrocytes).
The test system of series [10] is Escherichia coli. In words: Antibacterial activity against Escherichia coli ATCC 10418 assessed as inhibition of growth visually by CLSI method. The series is classed as functional.
Another series concerns Pseudomonas aeruginosa. Put plainly: Antimicrobial activity against Pseudomonas aeruginosa ATCC 27853 assessed as growth inhibition incubated for 18 hrs. The series is classed as functional.
Series [11] relates to Staphylococcus aureus. In words: Antimicrobial activity against methicillin resistant Staphylococcus aureus ATCC 43300 assessed as growth inhibition incubated for 18 hrs. The series is classed as functional.
In another series the test system is Acinetobacter baumannii. In words: Antimicrobial activity against Acinetobacter baumannii ATCC 19606 assessed as growth inhibition incubated for 18 hrs. The format is functional.
Series [12] concerns Enterococcus faecalis. In words: Antibacterial activity against Enterococcus faecalis ATCC 29212 assessed as inhibition of growth visually by CLSI method. The format is functional.
Series [13] concerns Escherichia coli. Put plainly: Antimicrobial activity against Escherichia coli ATCC 25922 assessed as growth inhibition incubated for 18 hrs. The format is functional.
The test system of the next series is Cryptococcus neoformans. In words: Antifungal activity against Cryptococcus neoformans H99 ATCC 208821 assessed as growth inhibition incubated for 36 hrs. Particulars: var. grubii H99 ATCC 208821. The series is classed as functional.
For series [14], the system named is Clostridioides difficile. Put plainly: Antibacterial activity against Clostridioides difficile NSW 132 (RT027) assessed as inhibition of growth visually preincubated for 2 to 4 hrs measured after 48 hrs by CLSI method. The settings on record: time hrs <=52. The format is functional.
For series [15], the system named is Staphylococcus aureus. In words: Antibacterial activity against vancomycin intermediate susceptibility Staphylococcus aureus Mu50 assessed as inhibition of growth visually by CLSI method. The series is classed as functional.
Series [16] in a line: Hemolytic activity in sheep RBC assessed as hemolysis at 50 microg/ml incubated for 2 hrs. Particulars: red blood cells (erythrocytes), at 50 µg/mL, read-out: Activity. The format is ADME, cell-based, Ovis aries, Erythrocyte.

The term MIC80 denotes the lowest concentration that inhibits either 80% of growth or 80% of the strains tested, depending on the study. In general, MIC refers to the least concentration at which growth counts as inhibited. The term CC50 denotes the concentration at which the toxic effect on the cells reaches its halfway point. Usually HC50 stands for the concentration giving 50% haemolysis. `CC(C)CCOc1cccc(-c2cccc(OCc3cn(C[C@@H](CCCCN)NC(=O)[C@@H](CCCNC(=N)N)n4cc(CC5CCCCC5)nn4)nn3)c2)c1.Cl.Cl`: the MIC80 in the series on Klebsiella pneumoniae was greater than 32 µg/mL; in the series on Candida albicans it was 8 µg/mL; in the series with Pseudomonas aeruginosa, 32 µg/mL; in the series on Staphylococcus aureus [11] it was no more than 0.25 µg/mL; with Acinetobacter baumannii, 32 µg/mL; in the series on Escherichia coli [13], 32 µg/mL. Further, the MIC80 in the series on Cryptococcus neoformans was greater than 32 µg/mL. The minimum inhibitory concentration (MIC) in the series with Clostridioides difficile [1] stood at 16 µg/mL; in the series with Staphylococcus aureus [2], 4 µg/mL; in the series on Staphylococcus aureus [4], 4 µg/mL; in the series on Enterococcus faecalis [7], 8 µg/mL; in the series with Streptococcus pneumoniae it was 2 µg/mL; in the series with Escherichia coli [10] it was 4 µg/mL. The minimal inhibitory concentration (MIC) with Enterococcus faecalis [12] was 4 µg/mL; in the series with Clostridioides difficile [14] it was 16 µg/mL; with Staphylococcus aureus [15] it was 4 µg/mL. Moreover, in series [3], the hemolysis at 1 h worked out at 94%. The midpoint of cytotoxicity in series [5], the CC50 at 23 h, lay at 28.1 µg/mL. Further, in [6], the Emax at 23 h was determined as 55%. Moreover, the hemolysis at 2 h, 5 microg/ml in series [8] was 3.7%. Moreover, the 50% haemolytic concentration (HC50) at 1 h in [9] was greater than 32 µg/mL. Besides, the hemolysis at 2 h, 50 microg/ml in series [16] was determined as 76.7%.
In the case of `CC(C)CCOc1ccccc1-c1cccc(OCc2cn(C[C@@H](CCCCN)NC(=O)[C@@H](CCCNC(=N)N)n3cc(CC4CCCCC4)nn3)nn2)c1.Cl.Cl`, the MIC80 was greater than 32 µg/mL in the series on Klebsiella pneumoniae; 16 µg/mL in the series on Candida albicans; 2 µg/mL with Pseudomonas aeruginosa; no more than 0.25 µg/mL in the series on Staphylococcus aureus [11]; 16 µg/mL in the series on Acinetobacter baumannii; 2 µg/mL in the series with Escherichia coli [13]. In addition, the MIC80 with Cryptococcus neoformans is greater than 32 µg/mL. The MIC in the series on Clostridioides difficile [1] stood at 16 µg/mL; in the series with Staphylococcus aureus [2], 4 µg/mL; in the series on Staphylococcus aureus [4], 4 µg/mL; in the series on Enterococcus faecalis [7], 8 µg/mL; in the series on Streptococcus pneumoniae, 2 µg/mL; with Escherichia coli [10], 4 µg/mL. In addition, the minimum inhibitory concentration (MIC) in the series with Enterococcus faecalis [12] was found to be 4 µg/mL; in the series on Clostridioides difficile [14], 8 µg/mL; in the series with Staphylococcus aureus [15], 2 µg/mL. In addition, the hemolysis at 1 h in [3] stood at 81%. The same molecule displayed a CC50 at 23 h in [5] greater than 32 µg/mL. In addition, in [6], the Emax at 23 h is 36%. Moreover, the hemolysis at 2 h, 5 microg/ml in series [8] is 1.4%. Further, the HC50 at 1 h in [9] is greater than 32 µg/mL. Besides, the hemolysis at 2 h, 50 microg/ml in [16] came out at 38.2%.
Turning to `CC(C)CCOc1ccccc1-c1ccccc1OCc1cn(C[C@@H](CCCCN)NC(=O)[C@@H](CCCNC(=N)N)n2cc(CC3CCCCC3)nn2)nn1.Cl.Cl`, the MIC80 was 32 µg/mL in the series on Klebsiella pneumoniae; 32 µg/mL in the series with Candida albicans; 16 µg/mL in the series on Pseudomonas aeruginosa; no more than 0.25 µg/mL in the series with Staphylococcus aureus [11]; 16 µg/mL in the series with Acinetobacter baumannii; 8 µg/mL with Escherichia coli [13]. The MIC80 in the series with Cryptococcus neoformans is greater than 32 µg/mL. In addition, the MIC in the series on Clostridioides difficile [1] worked out at 16 µg/mL; in the series with Staphylococcus aureus [2], 2 µg/mL; in the series with Staphylococcus aureus [4] it was 2 µg/mL; in the series on Enterococcus faecalis [7] it was 8 µg/mL; in the series on Streptococcus pneumoniae, 1 µg/mL; with Escherichia coli [10] it was 4 µg/mL. Also, the MIC in the series on Enterococcus faecalis [12] amounted to 4 µg/mL; with Clostridioides difficile [14], 8 µg/mL; in the series on Staphylococcus aureus [15] it was 4 µg/mL. Moreover, the hemolysis at 1 h in series [3] amounted to 56%. Moreover, in series [5], the CC50 at 23 h was greater than 32 µg/mL. Further, in series [6], the Emax at 23 h was 14%. Besides, the hemolysis at 2 h, 5 microg/ml in [8] was 2.1%. Besides, in [9], the HC50 at 1 h is greater than 32 µg/mL. Besides, the hemolysis at 2 h, 50 microg/ml in series [16] was 66.6%.
